Experimental data as given in patent publication US6461997B1, “Triazole sulfones having herbicidal activity” (Monsanto Technology LLC, priority 1999, dated 2002).

system: ECHCG (barnyardgrass); test: Pre-emergence herbicidal activity, warm season; assay type: in vivo, Echinochloa crus-galli; details: GR80 = lowest tested rate (300, 100, 30, 10 g/ha) with 80% or greater inhibition; approx. 14 days after treating; 30/21° C.
Outline: (§1)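 GR80 values derive from percent inhibition relative to untreated plants, read roughly 14 days after sowing and pre-emergence soil-surface treatment (compound in 50:50 acetone/water; rates typically 10, 30, 100, 300 g/ha). Warm-season weeds grew at 30/21° C day/night, cool-season ones at 18/13° C; an asterisk marks activity without reaching 80% at the highest rate.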

Structure (SMILES) | Pre-emergence activity (GR80) ECHCG [g/ha]
CCN(CC)C(=O)n1cnc(S(=O)(=O)C(F)(F)SCCOC)n1 [Example 13] | 300
C=C(Br)CC(F)(F)S(=O)(=O)c1ncn(C(=O)N(CC)CC)n1 [Example 19] | 300

system: STEME (common chickweed); test: Pre-emergence herbicidal activity, cool season; assay type: in vivo, Stellaria media; details: lowest tested rate with 80% or greater inhibition; rates 300, 100, 30, 10 g/ha; about 14 days
Outline: as §1

Structure (SMILES) | Pre-emergence activity GR80, STEME [g/ha]
CCN(CC)C(=O)n1cnc(S(=O)(=O)C(F)(F)SCCOC)n1 [Example 13] | 100
C=C(Br)CC(F)(F)S(=O)(=O)c1ncn(C(=O)N(CC)CC)n1 [Example 19] | 10

system: CHEAL (common lambsquarters); test: Pre-emergence herbicidal activity, warm season; assay type: in vivo, Chenopodium album; details: GR80 = lowest tested rate (300, 100, 30, 10 g/ha) with 80% or greater inhibition; approx. 14 days after treating; 30/21° C.
Outline: as §1

Structure (SMILES) | Pre-emergence activity (GR80) CHEAL [g/ha]
CCN(CC)C(=O)n1cnc(S(=O)(=O)C(F)(F)SCCOC)n1 [Example 13] | 300
C=C(Br)CC(F)(F)S(=O)(=O)c1ncn(C(=O)N(CC)CC)n1 [Example 19] | 100

system: AVEFA (wild oat); test: Post-emergence herbicidal activity, cool season; assay type: in vivo, Avena fatua; details: abraded plants sprayed at 300, 100, 30 and 10 g/ha; about 14 days after treatment
Outline: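 Greenhouse test on sand-abraded seedlings sprayed 9 to 14 days after planting at 300, 100, 30 and 10 g/ha; GR80 from percent inhibition versus controls at approximately 14 days.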

Structure (SMILES) | Post-emergence activity GR80, AVEFA
CCN(CC)C(=O)n1cnc(S(=O)(=O)C(F)(F)SCCOC)n1 [Example 13] | [empty]
C=C(Br)CC(F)(F)S(=O)(=O)c1ncn(C(=O)N(CC)CC)n1 [Example 19] | [empty]

system: rice (ORYSA); test: Selectivity test, PPI, warm season crop; assay type: in vivo, Oryza sativa; details: Oryza sativa; PPI application, 10 g/ha; read-out: Percent inhibition ORYSA
Procedure: (§2) A pre-prepared topsoil mixture (described above) was placed in a pot and compacted to a depth of 1.0 to 1.25 cm from the top of the pot. Seeds of each of several monocotyledonous and dicotyledonous annual plant species were placed on top of the soil. A sufficient quantity of soil to cover the seeds and level fill the pot was weighed into an open container. A known amount of the test compound was dissolved or suspended in an organic solvent and applied by spraying to this cover soil. The cover soil was thoroughly mixed to distribute the test compound throughout the cover soil, and was then applied as a cover layer over the seeds. Untreated soil was used as a cover layer for control pots. After treatment the plants were placed in a greenhouse where they received 0.64 cm of overhead irrigation. All subsequent watering consisted of a light overhead mist and/or subirrigation as needed for germination and growth. Tables 9 and 10 below relate to warm season plant species which were placed after pre-emergence treatment in a greenhouse with a 30/21° C. day/night temperature regime. Tables 11 and 12 below relates to cool season plant species placed after pre-emergence treatment in a greenhouse or growth chamber with an 18/13° C. day/night temperature regime. Only the compounds of Examples 1, 6, 8, 11, 13 and 15-20 were included in PPI tests.
(§3) Approximately 14 days after planting and treating, the plants were observed and herbicidal efficacy recorded as percent inhibition by comparison with untreated plants.
Additional pre-emergence and PPI tests were conducted by the procedures described above, on warm and cool season weed species in the presence of crop species, to assess herbicidal selectivity. Crop species included in warm season tests were corn (Zea mays, ZEAMX), rice (Oryza sativa, ORYSA) and soybean (Glycine max, GLYMX). Crop species included in cool season tests were wheat (Triticum aestivum, TRZAW), barley (Hordeunm vulgare, HORVX) and oilseed rape (Brassica napus, BRSNS).
Tables 15 and 16 relate to pre-emergence and PPI tests respectively on warm season species. Table 17 relates to pre-emergence tests on cool season species.

Structure (SMILES) | inhibition at 10 g/ha [%]
C=C(Br)CC(F)(F)S(=O)(=O)c1ncn(C(=O)N(CC)CC)n1 [Example 19] | 0

same assay, conditions: Oryza sativa; PPI application, 30 g/ha; read-out: Percent inhibition ORYSA

Structure (SMILES) | inhibition at 30 g/ha [%]
C=C(Br)CC(F)(F)S(=O)(=O)c1ncn(C(=O)N(CC)CC)n1 [Example 19] | 0

same assay, conditions: Oryza sativa; PPI application, 100 g/ha; read-out: Percent inhibition ORYSA

Structure (SMILES) | inhibition at 100 g/ha [%]
C=C(Br)CC(F)(F)S(=O)(=O)c1ncn(C(=O)N(CC)CC)n1 [Example 19] | 0

same assay, conditions: Oryza sativa; PPI application, 900 g/ha; read-out: Percent inhibition ORYSA

Structure (SMILES) | inhibition at 900 g/ha [%]
C=C(Br)CC(F)(F)S(=O)(=O)c1ncn(C(=O)N(CC)CC)n1 [Example 19] | 20

same assay, conditions: PPI application, 10 g/ha

Structure (SMILES) | Percent inhibition ORYSA [%]
CCN(CC)C(=O)n1cnc(S(=O)(=O)C(F)(F)SCCOC)n1 [Example 13] | 0

same assay, conditions: PPI application, 30 g/ha

Structure (SMILES) | Percent inhibition ORYSA [%]
CCN(CC)C(=O)n1cnc(S(=O)(=O)C(F)(F)SCCOC)n1 [Example 13] | 30

same assay, conditions: PPI application, 100 g/ha

Structure (SMILES) | Percent inhibition ORYSA [%]
CCN(CC)C(=O)n1cnc(S(=O)(=O)C(F)(F)SCCOC)n1 [Example 13] | 70

same assay, conditions: PPI application, 300 g/ha

Structure (SMILES) | Percent inhibition ORYSA [%]
CCN(CC)C(=O)n1cnc(S(=O)(=O)C(F)(F)SCCOC)n1 [Example 13] | 60

same assay, conditions: PPI application, 900 g/ha

Structure (SMILES) | Percent inhibition ORYSA [%]
CCN(CC)C(=O)n1cnc(S(=O)(=O)C(F)(F)SCCOC)n1 [Example 13] | 80

system: SINAR (wild mustard); test: Pre-emergence herbicidal activity, cool season; assay type: in vivo, Sinapis arvensis; details: lowest tested rate with 80% or greater inhibition; rates 300, 100, 30, 10 g/ha; about 14 days
Outline: as §1

Structure (SMILES) | Pre-emergence activity GR80, SINAR
CCN(CC)C(=O)n1cnc(S(=O)(=O)C(F)(F)SCCOC)n1 [Example 13] | [empty]
C=C(Br)CC(F)(F)S(=O)(=O)c1ncn(C(=O)N(CC)CC)n1 [Example 19] | 30 g/ha

system: DATST (jimsonweed); test: Pre-plant incorporated (PPI) herbicidal activity, warm season; assay type: in vivo, Datura stramonium; details: Datura stramonium; PPI application, 10 g/ha; read-out: Percent inhibition DATST
Procedure: In another set of tests, the pre-plant incorporated (PPI) activity of compounds of this invention was evaluated on the same species as for the pre-emergence tests described above. In the PPI tests the following procedure, designed to simulate PPI application, was used.
as §2, §3

Structure (SMILES) | inhibition at 10 g/ha [%]
C=C(Br)CC(F)(F)S(=O)(=O)c1ncn(C(=O)N(CC)CC)n1 [Example 19] | 0

same assay, conditions: Datura stramonium; PPI application, 30 g/ha; read-out: Percent inhibition DATST

Structure (SMILES) | inhibition at 30 g/ha [%]
C=C(Br)CC(F)(F)S(=O)(=O)c1ncn(C(=O)N(CC)CC)n1 [Example 19] | 0

same assay, conditions: Datura stramonium; PPI application, 100 g/ha; read-out: Percent inhibition DATST

Structure (SMILES) | inhibition at 100 g/ha [%]
C=C(Br)CC(F)(F)S(=O)(=O)c1ncn(C(=O)N(CC)CC)n1 [Example 19] | 0

same assay, conditions: Datura stramonium; PPI application, 300 g/ha; read-out: Percent inhibition DATST

Structure (SMILES) | inhibition at 300 g/ha [%]
C=C(Br)CC(F)(F)S(=O)(=O)c1ncn(C(=O)N(CC)CC)n1 [Example 19] | 90

same assay, conditions: Datura stramonium; PPI application, 900 g/ha; read-out: Percent inhibition DATST

Structure (SMILES) | inhibition at 900 g/ha [%]
C=C(Br)CC(F)(F)S(=O)(=O)c1ncn(C(=O)N(CC)CC)n1 [Example 19] | 99

same assay, conditions: PPI application, 10 g/ha

Structure (SMILES) | Percent inhibition DATST [%]
CCN(CC)C(=O)n1cnc(S(=O)(=O)C(F)(F)SCCOC)n1 [Example 13] | 0

same assay, conditions: PPI application, 30 g/ha

Structure (SMILES) | Percent inhibition DATST [%]
CCN(CC)C(=O)n1cnc(S(=O)(=O)C(F)(F)SCCOC)n1 [Example 13] | 30

same assay, conditions: PPI application, 100 g/ha

Structure (SMILES) | Percent inhibition DATST [%]
CCN(CC)C(=O)n1cnc(S(=O)(=O)C(F)(F)SCCOC)n1 [Example 13] | 50

same assay, conditions: PPI application, 300 g/ha

Structure (SMILES) | Percent inhibition DATST [%]
CCN(CC)C(=O)n1cnc(S(=O)(=O)C(F)(F)SCCOC)n1 [Example 13] | 90

same assay, conditions: PPI application, 900 g/ha

Structure (SMILES) | Percent inhibition DATST [%]
CCN(CC)C(=O)n1cnc(S(=O)(=O)C(F)(F)SCCOC)n1 [Example 13] | 100

same assay, conditions: pre-plant incorporated; GR80 = lowest tested rate with 80% or greater inhibition; approx. 14 days after treating; 30/21° C.

Structure (SMILES) | PPI activity (GR80) DATST [g/ha]
CCN(CC)C(=O)n1cnc(S(=O)(=O)C(F)(F)SCCOC)n1 [Example 13] | 300
C=C(Br)CC(F)(F)S(=O)(=O)c1ncn(C(=O)N(CC)CC)n1 [Example 19] | 300
